Results taken from patent publication US8853258B2, “C-linked hydroxamic acid derivatives useful as antibacterial agents” (Pfizer Inc., priority 2009, dated 2014).
Converted amounts (≈) assume the structure as drawn. Like-named read-outs stand apart in the source and are kept apart here.

Columns and labels:
Format in all cases: cell-based
[1] = tested on: Escherichia coli EC-1: VOGEL, mouse virulent; assay: MIC determination (CLSI), EC-1; details: for EC-1 MIC: Escherichia coli EC-1 VOGEL, mouse virulent; for MIC: Escherichia coli
Procedure: (§1) The in vitro antibacterial activity of compounds described in the Examples was evaluated by minimum inhibitory concentration (MIC) testing according to Clinical and Laboratory Standards Institute (CLSI, formerly NCCLS) guidelines. See: Clinical and Laboratory Standards Institute. Methods for Dilution Antimicrobial Susceptibility Tests for Bacteria that Grow Aerobically; Approved Standard-Seventh Edition. CLSI document M7-A7 [ISBN 1-56238-587-9]. Clinical and Laboratory Standards Institute, 940 West Valley Road, Suite 1400, Wayne, Pa. 19087-1898 USA, 2006; also Clinical and Laboratory Standards Institute. Performance Standards for Antimicrobial Susceptibility Testing; Eighteenth Informational Supplement. CLSI document M100-S18 [ISBN1-56238-653-0]. Clinical and Laboratory Standards Institute.
(§2) The following bacterial strains were used in these MIC determinations:
3) Escherichia coli EC-1: VOGEL, mouse virulent labeled as EC-1 in Tables 1, 2 and 3;

[2] = tested on: Acinetobacter baumanii/haemolyticus: Multidrug-resistant clinical isolate (AB-3167); assay: MIC determination (CLSI), AB-3167; details: for AB-3167 MIC: Acinetobacter baumanii/haemolyticus multidrug-resistant clinical isolate AB-3167; for MIC: Acinetobacter baumannii
Procedure: as §1, §2
2) Acinetobacter baumanii/haemolyticus: Multidrug-resistant clinical isolate labeled as AB-3167 in Tables 1, 2 and 3;

[3] = tested on: Klebsiella pneumoniae: Ciprofloxacin-resistant isolate, ESBL, clinical isolate (KP-3700); assay: MIC determination (CLSI), KP-3700
Procedure: as §1, §2
4) Klebsiella pneumoniae: Ciprofloxacin-resistant isolate, expresses extended-spectrum beta-lactamases (ESBL), clinical isolate, labeled as KP-3700 in Tables 1, 2, and 3.

[4] = tested on: Pseudomonas aeruginosa UI-18: Wild-type (PA-7); assay: MIC determination (CLSI), PA-7; details: for PA-7 MIC: Pseudomonas aeruginosa UI-18 wild-type PA-7; for MIC: Pseudomonas aeruginosa
Procedure: as §1, §2
1) Pseudomonas aeruginosa UI-18: Wild-type, labeled as PA-7 in Tables 1, 2 and 3;

SMILES	EC-1 MIC [1]	AB-3167 MIC [2]	KP-3700 MIC [3]	PA-7 MIC [4]	MIC ([1]; read-out: EC-1 MIC) [µg/mL]	MIC ([2]; Table 3, read-out: AB-3167 MIC) [µg/mL]	MIC ([4]; Table 3, read-out: PA-7 MIC) [µg/mL]	MIC ([1]; read-out: EC-1: (MIC)) [µg/mL]	MIC ([2]; Table 1, MIC, read-out: AB-3167 (MIC)) [µg/mL]	MIC ([4]; Table 1, MIC, read-out: PA-7 (MIC)) [µg/mL]
COc1ccc(OC)c(-c2ccc(CCC(C)(C(=O)NO)S(C)(=O)=O)cc2)c1 (stereo not drawn) [Example 48]	16 µg/mL	16 µg/mL	≧64 mg/L	≧64 mg/L	–	–	–	–	–	–
COc1ccccc1-c1ccc(CCC(C)(C(=O)NO)S(C)(=O)=O)cc1 (stereo not drawn) [Example 100]	32 µg/mL	≧64 mg/L	≧64 mg/L	8 µg/mL	–	–	–	–	–	–
CC(CCc1ccc(-c2ccc(C#N)c(C#N)c2)cc1)(C(=O)NO)S(C)(=O)=O (stereo not drawn) [Example 125]	8 µg/mL	≧64 mg/L	32 µg/mL	4 µg/mL	–	–	–	–	–	–
Cc1cc(-c2ccc(CCC(C)(C(=O)NO)S(C)(=O)=O)cc2)ccc1CCO (stereo not drawn) [Example 152]	4 µg/mL	≧64 mg/L	16 µg/mL	2 µg/mL	–	–	–	–	–	–
CC(CCc1ccc(-c2ccc(CO)cc2)cc1)(C(=O)NO)S(C)(=O)=O (stereo not drawn) [Example 112]	≧64 mg/L	≧64 mg/L	≧64 mg/L	4 µg/mL	–	–	–	–	–	–
CC(CCc1ccc(OCCCc2ccccc2)cc1)(C(=O)NO)S(C)(=O)=O (stereo not drawn) [Example 264, N-hydroxy-2-methyl-2-(methylsulfonyl)-4-[4-(3-phenylpropoxy)phenyl]butanamide]	–	–	16 µg/mL	–	4 (≈ 9.86 µM)	8 (≈ 19.7 µM)	32 (≈ 78.9 µM)	–	–	–
CC(CCc1ccc(-c2cnc(C#N)cn2)cc1)(C(=O)NO)S(C)(=O)=O (stereo not drawn) [Example 130]	16 µg/mL	≧64 mg/L	≧64 mg/L	16 µg/mL	–	–	–	–	–	–
Cc1ccc(C)c(-c2ccc(CCC(C)(C(=O)NO)S(C)(=O)=O)cc2)c1 (racemic) [Example 73]	16 µg/mL	4 µg/mL	≧64 mg/L	32 µg/mL	–	–	–	–	–	–
Cc1ncccc1COc1ccc(CCC(C)(C(=O)NO)S(C)(=O)=O)cc1 (stereo not drawn) [Example 245, N-hydroxy-2-methyl-4-{4-[(2-methylpyridin-3-yl)methoxy]phenyl}-2-(methylsulfonyl)butanamide]	–	–	≧64 mg/L	–	≥ 64	≥ 64	32 (≈ 81.5 µM)	–	–	–
CCC(c1ccccc1)c1noc(COc2ccc(CCC(C)(C(=O)NO)S(C)(=O)=O)cc2)n1 (stereo not drawn) [Example 240, N-hydroxy-2-methyl-2-(methylsulfonyl)-4-(4-{[3-(1-phenylpropyl)-1,2,4-oxadiazol-5-yl]methoxy}phenyl)butanamide]	–	–	≧64 mg/L	–	32 (≈ 65.6 µM)	≥ 64	≥ 64	–	–	–
CC(CCc1ccc(OCc2nc(-c3cccc(F)c3)no2)cc1)(C(=O)NO)S(C)(=O)=O (stereo not drawn) [Example 241, 4-(4-{[3-(3-fluorophenyl)-1,2,4-oxadiazol-5-yl]methoxy}phenyl)-N-hydroxy-2-methyl-2-(methylsulfonyl)butanamide]	–	–	≧64 mg/L	–	8 (≈ 17.3 µM)	16 (≈ 34.5 µM)	32 (≈ 69 µM)	–	–	–
CC(CCc1ccc(Br)cc1)(C(=O)NO)S(C)(=O)=O (stereo not drawn) [Example 32]	32 µg/mL	≧64 mg/L	≧64 mg/L	32 µg/mL	–	–	–	–	–	–
Cc1nc(-c2ccc(CCC(C)(C(=O)NO)S(C)(=O)=O)cc2)ccc1C#N (stereo not drawn) [Example 131]	4 µg/mL	≧64 mg/L	16 µg/mL	4 µg/mL	–	–	–	–	–	–
CCCCCCOc1ccc(CCC(C)(C(=O)NO)S(C)(=O)=O)cc1 (stereo not drawn) [Example 252, 4-[4-(hexyloxy)phenyl]-N-hydroxy-2-methyl-2-(methylsulfonyl)butanamide]	–	–	32 µg/mL	–	8 (≈ 21.5 µM)	4 (≈ 10.8 µM)	16 (≈ 43.1 µM)	–	–	–
CC(CCc1ccc(-c2cc(C(F)(F)F)c(C#N)cn2)cc1)(C(=O)NO)S(C)(=O)=O (stereo not drawn) [Example 124]	8 µg/mL	≧64 mg/L	≧64 mg/L	8 µg/mL	–	–	–	–	–	–
CC(CCc1ccc(-c2ccc(CC#N)cc2)cc1)(C(=O)NO)S(C)(=O)=O (stereo not drawn) [Example 106]	2 µg/mL	≧64 mg/L	8 µg/mL	1 µg/mL	–	–	–	–	–	–
CC(C)c1ccc(-c2ccc(CCC(C)(C(=O)NO)S(C)(=O)=O)cc2)cc1 (stereo not drawn) [Example 102]	2 µg/mL	4 µg/mL	8 µg/mL	4 µg/mL	–	–	–	–	–	–
CC(CCc1ccc(OCc2nc(Cc3cc(F)ccc3F)no2)cc1)(C(=O)NO)S(C)(=O)=O (stereo not drawn) [Example 256, 4-(4-{[3-(2,5-difluorobenzyl)-1,2,4-oxadiazol-5-yl]methoxy}phenyl)-N-hydroxy-2-methyl-2-(methylsulfonyl)butanamide]	–	–	≧64 mg/L	–	32 (≈ 64.6 µM)	≥ 64	≥ 64	–	–	–
CCCOc1ccc(CCC(C)(C(=O)NO)S(C)(=O)=O)cc1 (stereo not drawn) [Example 237, N-hydroxy-2-methyl-2-(methylsulfonyl)-4-(4-propoxyphenyl)butanamide]	–	–	≧64 mg/L	–	32 (≈ 97.1 µM)	≥ 64	8 (≈ 24.3 µM)	–	–	–
CC(CCc1ccc(-c2ccc(C(N)=O)cc2)cc1)(C(=O)NO)S(C)(=O)=O (stereo not drawn) [Example 96]	≧64 mg/L	≧64 mg/L	≧64 mg/L	8 µg/mL	–	–	–	–	–	–
CC(CCc1ccc(-c2ccccc2)cn1)(C(=O)NO)S(C)(=O)=O (stereo not drawn) [Example 4, N-Hydroxy-2-methyl-2-(methylsulfonyl)-4-(5-phenylpyridin-2-yl)butanamide]	–	–	≧64 mg/L	–	–	–	–	16 (≈ 45.9 µM)	≥ 64	8 (≈ 23 µM)
CC(CCc1ccc(-c2ccc(C#N)cc2)cc1)(C(=O)NO)S(C)(=O)=O (stereo not drawn) [Example 29]	1 µg/mL	≧64 mg/L	2 µg/mL	1 µg/mL	–	–	–	–	–	–
Cc1cc(C)cc(-c2ccc(CCC(C)(C(=O)NO)S(C)(=O)=O)cc2)c1 (racemic) [Example 52]	2 µg/mL	8 µg/mL	4 µg/mL	2 µg/mL	–	–	–	–	–	–
Cc1cc(-c2ccc(CCC(C)(C(=O)NO)S(C)(=O)=O)cc2)cnc1N(C)C (stereo not drawn) [Example 37]	16 µg/mL	≧64 mg/L	≧64 mg/L	16 µg/mL	–	–	–	–	–	–
CC(CCc1ccc(-c2ccc(CCO)cc2F)cc1)(C(=O)NO)S(C)(=O)=O (stereo not drawn) [Example 155]	2 µg/mL	≧64 mg/L	8 µg/mL	1 µg/mL	–	–	–	–	–	–
CC(C)Oc1ccc(CCC(C)(C(=O)NO)S(C)(=O)=O)cc1 (stereo not drawn) [Example 234, N-hydroxy-4-(4-isopropoxyphenyl)-2-methyl-2-(methylsulfonyl)butanamide]	–	–	≧64 mg/L	–	≥ 64	≥ 64	8 (≈ 24.3 µM)	–	–	–
COc1ccc(-c2ccc(CCC(C)(C(=O)NO)S(C)(=O)=O)cc2)cc1C (racemic) [Example 67]	4 µg/mL	≧64 mg/L	8 µg/mL	16 µg/mL	–	–	–	–	–	–
